Data as given in patent publication US20050159596A1, “Cyclic compounds and their use as complex ligands” (Basf Aktiengesellschaft, priority 2002, published 2005).

Assays:
[1] = Solubility in organic solvents; assay type: physicochemical; conditions: for solubility in organic solvents (in words): all organic solvents; for solubility (in words): compared with methanol, ethanol and acetonitrile; for solubility: organic solvent or mixture

Q: With `c1cc2c3oc(nc3c1)-c1cccc3nc(oc13)-c1cccc3nc(oc13)-c1cccc3nc-2oc13` [Compound 5, Cyclo-2,7′:2′,7″:2′″,7′″:2′″,7-quaterbenzoxazole] as the compound, how does the “solubility in organic solvents (in words)” value [1] read?
A: very limited solubility

Q: With `c1cc2c3[nH]c(nc3c1)-c1cccc3nc([nH]c13)-c1cccc3nc([nH]c13)-c1cccc3nc-2[nH]c13` [Compound 8, Cyclo-2,4′:2′,7″:2″4′″:2′″,7-quaterbenzimidazole] as the compound, how does the “solubility in organic solvents (in words)” value [1] read?
A: even lower solubility in organic solvents than compound (5)

Q: Which results are given for `c1cc(-c2cccc3nc(-c4nc5cccc(-c6cccc7ncoc67)c5o4)oc23)c2ocnc2c1` [Compound 13, 7,7′:2′,2″:7′″,7′″-Quaterbenzoxazole]?
A: solubility (in words) ([1]; in chloroform): improved; solubility (in words) ([1]; in dimethylformide): improved; solubility ([1]; in acetonitrile): < 1 µM; solubility ([1]; in ethanol): < 1 µM; solubility ([1]; in methanol): < 1 µM; melting point: 358 to 362 °C
